Assay results reported in patent publication US7893220B2, “Busulfan immunoassay” (Saladax Biomedical Inc., priority 2004, dated 2011).

Assays:
[1] = tested on: busulfan antibodies (antisera of example 7); experiment: Indirect competitive microtiter plate immunoassay (ELISA), busulfan derivative 7-BSA sensitized plates; format: binding, mouse; conditions: antibodies to Busulfan-KLH (example 7); plate coating Busulfan-BSA conjugate example 5, derivative 7; ratio of IC50 busulfan to IC50 analyte
Procedure: (§1) Ten Female BALB/c mice were immunized i.p. with 100 μg/mouse of Busulfan-BTG immunogen prepared in example 3 or with Busulfan-KLH immunogen prepared in example 4, emulsified in Complete Freund's Adjuvant. Mice were boosted once four weeks after the initial injection with 100 μg/mouse of the same immunogens emulsified in Incomplete Freund's Adjuvant. Ten or 28 days after the boost test bleeds from each mouse were obtained by orbital bleed. The anti-serum from these test bleeds contained Busulfan antibodies evaluated in Examples 9 , 10a and 10b.
The ELISA method for measuring busulfan concentrations was performed in polystyrene microtiter plates (Nunc MaxiSorp C8 or F8 Immunomodules) optimized for protein binding and containing 96 wells per plate. Each well was coated with busulfan-BSA conjugate (prepared as in example 5) by adding 300 μL of busulfan-BSA conjugate at 10 μg/mL in 0.05M sodium bicarbonate, pH=9.6, and incubating for three hours at room temperature. The wells were washed with 0.05M sodium bicarbonate, pH 9.6 and then were blocked with 400 μL of 5% sucrose, 0.2% sodium caseinate solution for 30 minutes at room temperature. After removal of the post-coat solution the plates were dried at 37° C. overnight.
(§2) The ELISA method for screening busulfan antibodies (produced in example 7) was performed with the microtiter plates that were sensitized with busulfan-BSA as described in examples 8a and 8b. The antibody screening assay was performed by diluting the antisera containing busulfan antibodies (of example 7) to 1:100, 1:1,000, 1:10,000 and 1:100,000 in phosphate buffered saline containing 0.1% BSA and 0.01% thimerosal. To each well of busulfan-BSA sensitized wells (prepared in examples 8a and 8b) 100 μL of diluted antibody was added and incubated for 10 minutes at room temperature with shaking. During this incubation antibody binds to the busulfan-conjugate in the well. The wells of the plates were washed three times with 0.02 M TRIS, 0.9% NaCl, 0.5% Tween-80 and 0.001% Thimerosal, pH 7.8 to remove any unbound antibody. […] Following the incubation for color development, 50 μL of stop solution (1.5% sodium fluoride in di H2O) was added to each well to stop the color development and after 10 seconds of shaking the absorbance was determined at 650 nm (Molecular Devices Plate Reader). The amount of antibody in a well was proportional to the absorbance measured and was expressed as the dilution (titer) resulting in an absorbance of 1.5. Titers were determined by graphing Log antibody dilution of the antibody measured (x-axis) vs. absorbance 650 nm (y-axis) and extrapolating the titer at an absorbance of 1.5. The titer determined the concentration (dilution) of antibody used in the indirect competitive Microtiter plate assay described in examples 10a and 10b. […]

[2] = tested on: busulfan antibodies (antisera of example 7); experiment: Indirect competitive microtiter plate immunoassay (ELISA), busulfan derivative 11-BSA sensitized plates; format: binding, mouse; conditions: antibodies to Busulfan-KLH (example 7); plate coating Busulfan-BSA conjugate example 6, derivative 11; ratio of IC50 busulfan to IC50 analyte
Procedure: as §1
The ELISA method for measuring busulfan concentrations was performed in polystyrene microtiter plates (Nunc MaxiSorp C8 or F8 Immunomodules) optimized for protein binding and containing 96 wells per plate. Each well was coated with busulfan-BSA conjugate (prepared as in example 6) by adding 300 μL of busulfan-BSA conjugate at 2.5 μg/mL in 7.5 μg/mL BSA, 0.05M sodium bicarbonate, pH=9.6, and incubating for three hours at room temperature. The wells were washed with 0.05M sodium bicarbonate, pH 9.6 and then were blocked with 400 μL of 5% sucrose, 0.2% sodium caseinate solution for 30 minutes at room temperature. After removal of the post-coat solution the plates were dried at 37° C. overnight.
as §2, with “well.” for “well. The wells of the plates were washed three times with 0.02 M TRIS, 0.9% NaCl, 0.5% Tween-80 and 0.001% Thimerosal, pH 7.8 to remove any unbound antibody.”

Structure (SMILES) | Cross-Reactivity of Competitive Immunoassay [1] | Cross-Reactivity of Competitive Immunoassay [2]
CS(=O)(=O)OCCCCOS(C)(=O)=O [Busulfan] | 100% | 100%
C1CCSC1 [Tetrahydrothiophene, tetrahydrothiophene] | <0.4% | <0.24%
O=S1(=O)CCC(O)C1 (centres unmarked) [Tetrahydrothiophene-3-ol-1,1-dioxide, tetrahydrothiophene-3-ol-1,1-dioxide] | <0.4% | <0.24%
O=S1(=O)CCCC1 [Tetramethylene sulfone, tetramethylene sulfone] | <0.4% | <0.24%
